According to patent US20250222062A1, “PEPTIDE INHIBITORS TARGETING THE TBL1-BETA-CATENIN COMPLEX” (THE TRANSLATIONAL GENOMICS RESEARCH INSTITUTE, priority 2022, published 2025):
Where no end group is shown, it is not given here.

Key:
TBL1/β-catenin complex = biological target: T1, TBL1/β-catenin complex (Homo sapiens, UniProt O60907); experiment: Sandwich ELISA peptide library screening in colon cancer cell lysates; format: binding; details: screening of individual peptides, FIG. 7
T1 construct: TBL1/β-catenin complex from lysates of a colon cancer cell with active Wnt signaling was captured; endogenous in cells; host or cells: HCT15 and SW480 colon cancer cell lysates, cells pre-treated with 20 mM LiCl
T1 sequence (O60907 1-577): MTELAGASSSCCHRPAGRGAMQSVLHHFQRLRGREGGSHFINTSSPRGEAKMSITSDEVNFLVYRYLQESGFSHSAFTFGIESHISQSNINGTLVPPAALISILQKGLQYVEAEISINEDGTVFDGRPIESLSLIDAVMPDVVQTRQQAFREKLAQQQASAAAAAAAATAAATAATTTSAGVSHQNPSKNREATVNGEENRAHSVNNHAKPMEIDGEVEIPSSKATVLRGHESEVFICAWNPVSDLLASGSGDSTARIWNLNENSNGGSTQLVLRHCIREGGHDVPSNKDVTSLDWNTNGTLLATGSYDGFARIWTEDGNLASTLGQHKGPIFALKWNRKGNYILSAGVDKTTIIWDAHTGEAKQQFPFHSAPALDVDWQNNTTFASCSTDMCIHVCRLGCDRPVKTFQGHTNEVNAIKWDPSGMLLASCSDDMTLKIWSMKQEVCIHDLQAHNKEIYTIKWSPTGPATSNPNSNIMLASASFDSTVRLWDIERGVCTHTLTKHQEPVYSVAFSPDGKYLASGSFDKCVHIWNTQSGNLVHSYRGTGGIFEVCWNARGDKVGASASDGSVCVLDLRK
Method: To identify the peptide or peptides able to disrupt the interaction between TBL1 and (3-catenin, the sandwich ELISA approach was used (see FIG. 4). In this assay TBL1/β-catenin complex from lysates of a colon cancer cell with active Wnt signaling was captured in a Protein G ELISA 96-well plate coated with antibody that recognizes TBL1. To ensure activation of Wnt signaling, the cells were pre-treated with 20 mM LiCl for 12 h a 37° C. The bound complex was then exposed to peptides from the library either as single peptides or in a combination of 2 or 3 peptides to ensure coverage of the potential binding site between TBL1 and β-catenin. After washing away unbound proteins, the plates were incubated with β-catenin antibodies labeled with ALEXA FLUOR® 488 dye, and the level of β-catenin associated to TBL1 was quantified by a plate reader that detects the ALEXA FLUOR® 488 fluorescence probe. As a form of TBL1/β-catenin complex, we used colon cancer cell lines HCT15 and SW480. All the experiments were conducted in triplicate to ensure statistical significance. To reduce variability the assays were performed by using the EPMOTION® liquid handler. We designed a program that controls the peptide seeding into the ELISA plate wells: 1, 2 or 3 peptides per well, with overlap of one peptide in each well.
All wells in the screening were loaded with 1 mg/ml of lysate and incubated at 37° C. for 1 hour. After a wash, peptide combinations were added at a concentration of […] for each peptide and incubated at 37° C. for 2 hours followed by β-catenin detection as described. […] The SW480 lysate standard curve was generated by varying the concentration of lysate without any peptides present.
Additional screening was performed with the peptide library using the assay described in Example 2 with the colon cancer cell lines HCT15 and SW480.
Combinations of three peptides were subsequently assayed at varying concentrations to show a dose response in the disruption of the interaction between TBL1 and β-catenin.
To identify the peptide or peptides able to disrupt the interaction between TBL1 and (3-catenin, we tested the Sandwich ELISA approach. In this assay TBL1/β-catenin complex from lysates of colon cancer cell with active Wnt signaling, is captured in Protein G ELISA 96 well plate coated with antibody that recognizes TBL1. To ensure activation of Wnt signaling, the cells are pre-treated with 20 mM LiCl for 12 h a 37° C. The bound complex is then exposed to peptides from the library either as single peptide or in a combination of 2 or 3 peptides to ensure coverage of the potential binding site between TBL1 and β-catenin. After washing away unbound proteins, the plates are incubated with β-catenin antibodies labeled with Alexa Fluor 488 dye, and the level of β-catenin associated to TBL1 is quantified by a plate reader that detects the 488 fluorescence probe. As a font of TBL1/β-catenin complex we used colon cancer cell lines HCT15 and SW480. All the experiments are conducted in triplicated to ensure statistical significance, and to reduce variability we perform the assays by using the EpiMotion liquid handler. We designed a program that controls the peptide seeding into the ELISA plate wells: 1, 2 or 3 peptides per well, with overlap of one peptides in each well.

[1] = tested on: β-catenin-mediated transcriptional activation (TCF/LEF); experiment: TOPFlash TCF/LEF reporter assay, reporter cells transfected with peptides; format: cell-based
Method: FIGS. 15A and 15B depict the results of a TOPFlash TCF/LEF reporter assay monitoring Wnt/β-catenin signaling pathway activity in cells expressing BC2059 (i.e., positive control) and Peptides 1-5.
A TOPFlash TCF/LEF reporter assay was performed with Peptides 1-5 as described in Veeman M T, et al. (2003) Curr Biol. 13(8):680-5. This is a luciferase reporter assay of (3-catenin-mediated transcriptional activation. Tegatrabetan (BC2059) was used as a positive control in the TOPFlash TCF/LEF reporter assay. Briefly, TCF/LEF reporter cells were transfected with the nucleofection kit. After 48 hours, the ONE-STEP™ luciferase assay was performed.

[2] = biological target: T2, TBL1 complex (β-catenin displacement) (Homo sapiens, UniProt O60907); experiment: Homologous competitive ELISA with increasing logarithmic peptide concentrations; format: binding; details: increasing logarithmic concentrations of each peptide, FIG. 11
T2 sequence (O60907 1-577): T1 sequence (O60907 1-577)

β-catenin bound to TBL1 = biological target: T3, β-catenin bound to TBL1 (Homo sapiens, UniProt O60907); experiment: Pull-down assay with TBL1 in SW480 cells transfected with peptides, Western blot; format: cell-based; details: FIG. 14
T3 construct: endogenous in cells; host or cells: SW480 colorectal cancer cells (only the peptides and the GFP control were transfected)
T3 sequence (O60907 1-577): T1 sequence (O60907 1-577)
Source text: FIG. 13 depicts a pull-down assay with TBL1 in the SW480 colorectal cancer (CRC) cell line transfected with the selected peptides.
Tegatrabetan (BC2059) is an antagonist of β-Catenin and was used as a positive control in the pull-down experiments. […] Green fluorescent protein (GFP) was also transfected into the SW480 cells as a negative control.

[3] = tested on: transcription downstream TCF/LEF; experiment: Washout TOPFlash assay; format: cell-based; details: FIG. 18
Method: FIG. 18 presents wash out TOPFlash at 8, 12,18, and 24 hour time points: to investigate the effects of peptide 3 over time with a washout TOPFlash assay. To do this we followed the same procedure previously stated but performed washouts at 8, 12, 18, and 24 hour time points. This experiment was completed in duplicate.
FIG. 18 presents wash out TOPFlash at 8, 12,18, and 24 hour time points: to investigate the effects of peptide 3 over time with a washout TOPFlash assay. To do this we followed the same procedure previously stated but performed washouts at 8, 12, 18, and 24 hour time points.
This experiment was completed in duplicate.

[4] = tested on: transcription activity downstream TCF/LEF; experiment: TOPFlash assay in HEK293 TCF/LEF luciferase cells stimulated with LiCl and Wnt3a, peptide treatment; format: cell-based; details: peptide at 5 μM for 6 hours, FIG. 17
Method: FIG. 17 presents a TOPFlash assay to determine transcription activity downstream TCF/LEF: HEK293 cells containing a luciferase downstream TCF/LEF were LiCl was administered 16 hours prior to treatment to stimulate the Wnt pathway. Then the cells were treated with recombinant Wnt3a to stimulate transcription and peptide at 5 μM or BC-2059 at 0.5 μM for 6 hours before luciferase expression was quantified with the One-Step Luciferase assay system.
FIG. 22 presents TOPFlash assay to determine transcription activity downstream TCF/LEF: HEK293 cells containing a luciferase downstream TCF/LEF were with LiCl 16 hours prior to treatment to stimulate the Wnt pathway. Then they were treated with recombinant Wnt3a to stimulate transcription and peptide 16 (short) and 2 (long) at 5 μM or BC-2059 at 0.5 μM for 6 hours before luciferase expression was quantified with the One-Step Luciferase assay system.
FIG. 23 presents TOPFlash assay results to determine transcription activity downstream TCF/LEF dependency to peptides: HEK293 cells containing a luciferase downstream TCF/LEF were with LiCl 16 hours prior to treatment to stimulate the Wnt pathway. Then they were treated with recombinant Wnt3a to stimulate transcription and peptide 16 (short) and 2 (long) at different concentrations (300 μM-0.01 μM) for 6 hours before luciferase expression was quantified with the One-Step Luciferase assay system. […]

H358 (lung cancer) = experiment: Cell viability by CellTiter Glo; format: cell-based; details: 300 μM-0.01 μM for 72 hours, FIG. 24
HCT116 (colon cancer) = experiment: Cell viability by CellTiter Glo; format: cell-based; details: 300 μM-0.01 μM for 72 hours, FIG. 24
SW480 (colon cancer) = experiment: Cell viability by CellTiter Glo; format: cell-based; details: 300 μM-0.01 μM for 72 hours, FIG. 24
HCT15 (colon cancer) = experiment: Cell viability by CellTiter Glo; format: cell-based; details: 300 μM-0.01 μM for 72 hours, FIG. 24

Sequence: AIVEAGGMQALGLHLTDPSQ [Pep19]
- disrupting the interaction between TBL1 and β-catenin (TBL1/β-catenin complex): showed efficacy

Sequence: HQLSKKEASRHAIMRSPQMVSAIVRTMONTNDVETARCTAGTLH (HQLSKKEASRHAIMRSPQMVSAIVRTMQNTNDVETARCTAGTLH) [Peptide 1, longer peptide, from b112 on]
- β-catenin-mediated transcriptional activation (luciferase) ([1]; initial evaluation of all five peptides, 48 hours after transfection, FIG. 15A): significant decrease
- β-catenin-mediated transcriptional activation (luciferase) ([1]; second experiment evaluating only Peptide 1, FIG. 15B): confirmed the earlier result

Sequence: LKVLSVCSSNKPAIVEAGGM [Pep18]
- disrupting the interaction between TBL1 and β-catenin (TBL1/β-catenin complex): showed efficacy

Sequence: LKVLSVCSSNKPAIVEAGGMQALGLHLTDPSQRLVQNCLWTLRN [Peptide 4]
- displacement of β-catenin from the TBL1 complex [2]: able to displace β-catenin from the TBL1 complex in a dose dependent manner
- disrupting the interaction between TBL1 and β-catenin (TBL1/β-catenin complex): showed efficacy
- amount of β-catenin bound to TBL1 (β-catenin bound to TBL1): most pronounced effects

Sequence: NQESKLIILASGGPQALVNIMRTYTYEKLLWTTSRVLKVLSVCS [Peptide 3, longer peptide; in b127-b129 apparently used as CPP peptide]
- blocking transcription downstream TCF/LEF ([3]; conclusion of washout TOPFlash): specific and effective
- luciferase produced after washout ([3]; peptide washed out after 8 and 12 hours, compared to the non washout control): increase in luciferase produced
- levels of luciferase after treatment [4]: decreased levels of luciferase

Sequence: RTMQNTNDVETARCTAGTLH [Pep6]
- cytotoxic effect (cell viability) (H358 (lung cancer)): cytotoxic effect
- cytotoxic effect (cell viability) (HCT116 (colon cancer)): cytotoxic effect
- cytotoxic effect (cell viability) (SW480 (colon cancer)): cytotoxic effect
- cytotoxic effect (cell viability) (HCT15 (colon cancer)): cytotoxic effect

Sequence: TYEKLLWTTSRVLKVLSVCS [Pep17]
- disrupting the interaction between TBL1 and β-catenin (TBL1/β-catenin complex): showed efficacy

Sequence: VDSVLFYAITTLHNLLLHQEGAKMAVRLAGGLQKMVALLNKTNV [Peptide 2]
- cytotoxic effect (cell viability) (H358 (lung cancer)): cytotoxic effect
- cytotoxic effect (cell viability) (HCT116 (colon cancer)): cytotoxic effect
- cytotoxic effect (cell viability) (SW480 (colon cancer)): cytotoxic effect
- cytotoxic effect (cell viability) (HCT15 (colon cancer)): cytotoxic effect

Sequence: VVTCAAGILSNLTCNNYKNKMMVCQVGGIEALVRTVLRAGDRED [Peptide 5, longer peptide; in b127 apparently used as CPP peptide]
- displacement of β-catenin from the TBL1 complex [2]: able to displace β-catenin from the TBL1 complex in a dose dependent manner
- levels of luciferase after treatment [4]: decreased levels of luciferase
- disrupting the interaction between TBL1 and β-catenin (TBL1/β-catenin complex): showed efficacy
- amount of β-catenin bound to TBL1 (β-catenin bound to TBL1): most pronounced effects
